# PMC7069095, “A cell-permeable peptide-based PROTAC against the oncoprotein CREPT proficiently inhibits pancreatic cancer” (Theranostics, 2020)
# Entries after “also recorded” stand apart in the source; their conditions may differ. Non-standard residues stand in square brackets, D forms with d. Residues, ends and D or L forms follow the SMILES beside them. Hyp = O=C(O)[C@@H]1C[C@@H](O)CN1; Ahx = NCCCCCC(=O)O
# How the values were obtained:
# [1] = Circular dichroism (CD) spectroscopy; format: physicochemical; conditions: 0.1 mg/mL in deionized water, room temperature
# Description: All peptides were dissolved in the deionized water at a final concentration of 0.1 mg/mL. The CD spectra were measured by using a 1 nm bandwidth with a 1 nm step resolution from 190 to 260 nm at room temperature (Jasco spectropolarimeter, Japan). Final spectra were obtained from the average of three parallel scans after subtracting a spectrum of deionized water recorded under the same conditions. Each sample was scanned thrice and the averaged spectrum was smoothed. The helicity were calculated by CDNN 2.1 [59], [60].
# [2] = system: Panc-1 cells; test: Confocal fluorescence imaging of FITC labeled peptides in cells; format: cell-based; conditions: flow cytometry and confocal imaging of FITC-labeled PRTC; Panc-1, AsPc-1, MIA PaCa-2 cells
# Description: To examine whether PRTC could permeate into pancreatic cancer cells, we synthesized fluorescein isothiocyanate (FITC) labeled PRTC, PRTC-m, PRTC-v, PRTC-r (PRTC without RRRRK) as well as TAT (a widely used cell penetrating peptide, as a positive control).
# Figure 3 Identification of the permeability of PRTC in Panc-1 cells. (A) Entry of FITC- labeled peptides into Panc-1 cells tested by flow cytometry. FITC-TAT is the positive control. Measurements were performed in triplicate. (B) Quantification of cellular uptake of Panc-1 cells treated with different concentrations of FITC-PRTC. (C) Confocal microscope images of Panc-1 cells treated with 10 μM FITC labeled peptides. Scale bars, 10 μm. (D) Confocal microscope images of Panc-1 cells treated with different dosages of FITC-PRTC. Scale bars, 10 μm.
# [3] = biological target: T1, endogenous CREPT protein in Panc-1 cells (Homo sapiens, UniProt Q9NQG5); test: Western blot of endogenous CREPT (degradation); format: cell-based
# T1 construct: endogenous protein level of CREPT in Panc-1, AsPc-1 and MIA-PaCa-2 cells; endogenous in cells; host or cells: Panc-1, AsPc-1, MIA PaCa-2
# T1 sequence (Q9NQG5 1-326): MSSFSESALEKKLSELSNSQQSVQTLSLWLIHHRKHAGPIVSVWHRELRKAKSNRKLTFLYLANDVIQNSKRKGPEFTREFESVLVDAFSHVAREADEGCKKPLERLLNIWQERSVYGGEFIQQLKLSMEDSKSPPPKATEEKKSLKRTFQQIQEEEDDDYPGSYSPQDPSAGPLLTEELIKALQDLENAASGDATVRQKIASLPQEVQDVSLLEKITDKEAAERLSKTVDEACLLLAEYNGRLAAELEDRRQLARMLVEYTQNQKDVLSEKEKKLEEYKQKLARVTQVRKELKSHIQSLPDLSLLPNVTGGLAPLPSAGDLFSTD
# Description: (§1) For exogenous immunoprecipitation assays, HEK293T cells were plated in 60 mm dishes and then transfected with the indicated plasmids. After 24 h, cells were harvested using RIPA buffer (50 mM Tris-HCl pH 8.0, 2 mM EDTA pH 8.0, 150 mM NaCl, 1% NP-40, 0.5% sodium deoxycholate, 0.1% SDS) with mixed protease inhibitors. Cell lysates were incubated with 2 μg of the indicated antibodies and 30 μL of protein A/G-Sepharose beads at 4 °C overnight. Beads were eluted five times with lysis buffer (50 mM Tris-HCl pH 7.6, 1 mM EDTA pH 8.0, 165 mM NaCl, 0.5% NP-40), and thereafter, a western blot assay was performed to analyze the association by using the indicated antibodies. Western blot was performed as previously reported. Anti-β-actin and anti-Flag antibodies were purchased from Sigma. Anti-Myc antibody was purchased from Santa Cruz Biotechnology. Antibody against CREPT was produced in the laboratory.
# To address whether PRTC could induce CREPT degradation, we examined the endogenous protein level of CREPT in Panc-1, AsPc-1 and MIA-PaCa-2 cells in the presence of different dosages of PRTC. […] Consistently, treatment with PRTC led to decreases in CREPT protein at different times (Figure 5B, S3A). […] To further visualize the degradation process, we stained the endogenous CREPT protein with an antibody against CREPT in the cells treated with FITC-labeled PRTC.
# Figure 5 PRTC induces the ubiquitination and proteasome- dependent degradation of the endogenous CREPT protein. (A) Immunoblot of CREPT following 24 h incubation with different dosages of PRTC or PRTC-m in Panc-1 cells. (B) Immunoblot of CREPT exposed to 10 μM PRTC or PRTC-m for different times in Panc-1 cells. (C) Western blot analysis of CREPT following 24 h incubation with 10 μM PTRC in Panc-1 cells. MG132 is an inhibitor of proteasome activity. (D) Immunofluorescence visualization of Panc-1 cells after treatment with PRTC for 24 h. Cells were stained with anti-CREPT antibody. Scale bars, 20 μm.
# [4] = biological target: T2, ubiquitinated CREPT in Panc-1 cells (Homo sapiens, UniProt Q9NQG5); test: Endogenous IP of CREPT with ubiquitin (Co-IP); format: cell-based; conditions: 10 μM peptide for 24 h
# T2 construct: endogenous protein level of CREPT in Panc-1, AsPc-1 and MIA-PaCa-2 cells; endogenous in cells; host or cells: Panc-1, AsPc-1, MIA PaCa-2
# T2 sequence (Q9NQG5 1-326): T1 sequence (Q9NQG5 1-326)
# Description: as §1
# In addition, a Co-IP experiment was performed in Panc-1 cells treated with 10 μM PRTC, PRTC-m or PRTC-v for 24 h. […] In the absence of MG132, the level of ubiquitinated CREPT was further increased by PRTC (Figure 6C, compare lane 1 and lane 2).
# Figure 6 The degradation of CREPT by PRTC is dependent on its VHL ligand. (A) Immunoblot of CREPT following 24 h incubation with different dosages of PRTC or PRTC-v in Panc-1 cells. (B) Immunoblot of CREPT exposed to 10 μM PRTC or PRTC-v for different time points in Panc-1 cells. (C) Endogenous IP experiment of CREPT with ubiquitin treated with 10 μM PTRC, PTRC-m or PTRC-v in Panc-1 cells. IP: CREPT, IB: Anti-ubiquitin.
# [5] = system: Panc-1 cells; test: Colony formation; format: cell-based; conditions: 500 cells per well, 10 days, than the control cells
# Description: Cells were seeded into 6-well plates (500 cells per well) and cultured for 10 days, then washed with PBS and stained with 0.1% crystal violet. The number of colonies was counted by ImageJ and presented as the mean ± standard deviation (SD) from three individual experiments.
# [6] = Body weight and toxicity in mice bearing xenograft tumors; format: in vivo, Balb/c nude mice; conditions: 10 mg/kg intraperitoneal, and HPDE6-C7 cells
# Description: For the xenograft model, 5×10^6 wild-type Panc-1 cells or CREPT knockout Panc-1 cells were subcutaneously injected into 4-week-old female Balb/c nude mice, which were purchased from Beijing Vital River Laboratory Animal Technology Co., Ltd. Each experimental group consisted of five mice. Mice bearing tumors were randomly divided into two groups and administered via intraperitoneal injection control solvent (0.9% saline) or PRTC (dissolved in 0.9% saline, 10 mg/kg) every 2 days for 4 weeks. The body weight of mice were measured every week after treated with 0.9% saline or PRTC. Tumor volume was measured by using the formula V = (a × b^2)/2 (V is volume, a is the length of the tumor, b is the width of the tumor).
smiles,measurement,setting,value
CC[C@H](C)[C@H](N)C(=O)N[C@@H](Cc1ccc(O)cc1)C(=O)N1C[C@H](O)C[C@H]1C(=O)N[C@@H](C)C(=O)N[C@@H](CC(C)C)C(=O)NCCCCCC(=O)N[C@@H](CCCCN)C(=O)N[C@@H](CC(=O)O)C(=O)N[C@H](C(=O)N[C@@H](CC(C)C)C(=O)N[C@@H](CO)C(=O)N[C@@H](CCC(=O)O)C(=O)N[C@@H](CCCCN)C(=O)N[C@@H](CCC(=O)O)C(=O)N[C@@H](CCCCN)C(=O)N[C@@H](CCCCN)C(=O)N[C@@H](CC(C)C)C(=O)N[C@@H](CCC(=O)O)C(=O)N[C@@H](CCC(=O)O)C(=O)N[C@@H](Cc1ccc(O)cc1)C(=O)N[C@@H](CCCCN)C(=O)N[C@@H](CCC(N)=O)C(=O)N[C@@H](CCCCN)C(=O)N[C@@H](CC(C)C)C(=O)N[C@@H](C)C(=O)N[C@@H](CCCNC(=N)N)C(=O)N[C@H](C(=O)N[C@@H](CCCNC(=N)N)C(=O)N[C@@H](CCCNC(=N)N)C(=O)N[C@@H](CCCNC(=N)N)C(=O)N[C@@H](CCCNC(=N)N)C(=O)N[C@@H](CCCCN)C(=O)O)C(C)C)C(C)C [PRTC] (H-IY[Hyp]AL[Ahx]KDVLSEKEKKLEEYKQKLARVRRRRK-OH; N-terminus and C-terminus assumed),secondary structure by CD spectrum,[1],α-helix structure
same,Helicity,"[1]; 190 to 260 nm, average of three scans, calculated by CDNN 2.1",50.1%
same,time to permeate into pancreatic cancer cells,[2],≤ 2 h
same,CREPT protein level at different times,[3]; 10 μM or 20 μM peptide,decreases
same,CREPT protein level upon different dosages,[3]; 24 h incubation,dramatically decreased
same,CREPT protein level,[4]; Co-IP experiment,significantly decreased
same,ubiquitinated CREPT proteins,"[4]; IP: CREPT, IB: anti-ubiquitin",increased
same,colony formation,[5],fewer colonies
same,toxicity,[6],relatively low; also recorded: no toxicity
